# Source: patent US10041905B2, “Electrochemically active agents for pH modulation in biological buffers” (Robert Bosch GmbH, priority 2015, dated 2018)
# Experiments:
# [1] = Electrochemical generation of H+ or OH- ions at indium tin oxide electrode surfaces (electro-oxidation / electro-reduction, cyclic voltammetry); assay type: physicochemical
# Text: Electrode material used: The electrode material was indium tin oxide. This is a semiconducting electrode surface with very large potential window in an aqueous solution.
# Oxidation of ascorbic acid at the electrode surfaces produced H^+ ions and changed the electrode surface pH to a more acidic state: AH2→A+2H^++2e^−, where AH2 is ascorbic acid ([…]) (as shown in FIG. 5). The electrode potential at which it oxidizes was less than 0.5V for Indium tin oxide material vs Ag/AgCl reference electrode (as shown in FIG. 7). This potential was less than the voltages needed for the oxygen evolution reaction in aqueous solution. The ascorbic acid also acted as a sacrificial species to prevent electrochemical degradation of the surface chemistry.
# Reduction of benzoquinone (C6H4O2) into Hydroquinone (C6H6O2) can produce OH^− ions at −0.1V: BQ+2e^−+2H2O →HQ+2OH^− This reduction reaction increased the pH at the electrode interface.
# [2] = target: T1, Green Fluorescent Protein (GFP) (Aequorea victoria, UniProt P42212); experiment: Fluorescence intensity of GFP after incubation with benzoquinones (protein stability); assay type: biochemical; settings: 0.5 mM benzoquinone, phosphate buffered saline, 30 min
# Experimental: Para-benzoquinones and ortho-benzoquinones (compounds 2, 4, 6, and 9 in FIG. 31) are susceptible to nucleophilic attack at the double bond of the ring (positions 2, 3, 5 and 6 in structure 2 of FIG. 31, positions 3, 4, 5 and 6 in structure 4 of FIG. 31, and positions 2 and 3 in structure 6 of FIG. 31). Introducing substituents at some or all of those positions can mitigate the problem of nucleophilic attack. […] Fluorescence intensity of Green Fluorescent Protein (GFP) was measured after incubation with three different benzoquinones in phosphate buffered saline for 30 min (concentration of benzoquinones was 0.5 mM). The difference in fluorescence intensity indicates the varied effect that the different substitutions in benzoquinones have on the stability of GFP. Fluorescence intensity of GFP is indicative of its structural integrity. Losses in fluorescence intensity usually indicate loss of its tertiary structure (protein denaturation) (Yin D. X., Zhu L., Schimke R. T. Anal. Biochem. 1996, 235:195-201).
# [3] = target: T1, Green Fluorescent Protein (GFP); settings: literature (Loomis et al.; U.S. Pat. No. 6,753,312); cited from earlier work
SMILES,"potential of current increase indicating start of oxidation ([1]; cyclic voltammetry, ITO electrodes)",electrode potential at which it oxidizes ([1]; indium tin oxide vs Ag/AgCl reference electrode),loss in GFP fluorescence intensity after incubation [2],potential of reduction producing OH- ions ([1]; reduction of benzoquinone into hydroquinone),Michael addition reaction with amino groups of proteins [3]
O=C1O[C@H]([C@@H](O)CO)C(O)=C1O [ascorbic acid],around 0.25 V,less than 0.5 V,–,–,–
"O=C1C=CC(=O)C=C1 [unsubstituted benzoquinone, 1,4-benzoquinone]",–,–,25%,−0.1 V,undergoes Michael addition reaction
